In ChEMBL document CHEMBL4665660, “A novel indirubin derivative that increases somatic cell plasticity and inhibits tumorigenicity” (Bioorg Med Chem, 2019):
pIC50: −log10 of the molar value. Active and inactive are the calls of the source. No cut-off for these calls is given here.

Tests used:
[1] = Induction of cellularization in human primary myotube assessed as beta-actin level at 100 nM in presence of BIO incubated for 72 hrs by Western blot analysis (reference value: 1.095); format: tissue-based; conditions: 0.1 µM
[2] = Induction of cellularization in human primary myotube assessed as alpha-tubulin level at 100 nM in presence of BIO incubated for 72 hrs by Western blot analysis (reference value: 0.674); format: functional
[3] = Induction of cellularization in human primary myotube assessed as alpha-tubulin level at 5 uM in presence of reversine incubated for 72 hrs by Western blot analysis (reference value: 0.674); format: functional
[4] = Induction of cellularization in human primary myotube assessed as beta-actin level at 5 uM in presence of reversine incubated for 72 hrs by Western blot analysis (reference value: 1.095); format: tissue-based
NIH3T3 [5] = test: Adipogenic activity in mouse NIH/3T3 cells assessed as increase in insulin-stimulated glucose uptake at 1 uM preincubated for 72 hrs followed by incubation with adipogenic factors for 10 days by […] probe based fluorescence assay; format: functional, cell-based; conditions: time 13.0 day
MDA-MB-231 [6] = test: Inhibition of cell invasion in human MDA-MB-231 cells at 50 nM incubated for 72 hrs by crystal violet staining based assay; format: functional
C2C12 [7] = test: Osteogenic activity in mouse C2C12 cells assessed as increase in osteoponin-expression at 1 uM preincubated for 72 hrs followed by incubation with osteogenic factor for 10 days by RT-PCR analysis; format: functional, cell-based; conditions: time 13.0 day
C2C12 [8] = test: Osteogenic activity in mouse C2C12 cells assessed as increase in mineralization at 1 uM preincubated for 72 hrs followed by incubation with osteogenic factor for 10 days; format: functional, cell-based; conditions: time 13.0 day
HCT-116 [9] = test: Cytotoxicity against human HCT-116 cells assessed as reduction in cell viability incubated for 72 hrs by MTT assay; format: functional, cell-based; conditions: HCT-116, 72 h
[10] = target: Glycogen synthase kinase-3 beta (Homo sapiens) (UniProt P49841); test: Inhibition of GSK3beta (unknown origin) using PASVPPSPSLSRHSSPHQpSED as substrate at 1 uM preincubated for 10 mins followed by substrate addition and measured after 30 mins by TR-FRET assay relative to control
Sequence of Glycogen synthase kinase-3 beta (Homo sapiens) (P49841 whole entry, looked up): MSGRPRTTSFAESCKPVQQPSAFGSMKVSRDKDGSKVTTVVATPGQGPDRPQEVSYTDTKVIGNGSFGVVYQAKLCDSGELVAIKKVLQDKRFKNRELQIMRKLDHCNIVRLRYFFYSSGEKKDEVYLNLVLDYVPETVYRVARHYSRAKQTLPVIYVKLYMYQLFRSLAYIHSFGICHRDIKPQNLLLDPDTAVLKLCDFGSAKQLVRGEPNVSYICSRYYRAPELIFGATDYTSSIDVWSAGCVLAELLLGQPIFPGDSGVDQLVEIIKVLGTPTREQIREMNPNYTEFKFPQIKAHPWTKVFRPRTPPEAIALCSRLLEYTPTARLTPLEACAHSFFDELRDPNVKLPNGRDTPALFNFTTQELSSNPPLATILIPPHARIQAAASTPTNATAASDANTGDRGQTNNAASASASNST

[11] = target: T1, Aurora kinase A (Homo sapiens) (UniProt O14965); test: Inhibition of recombinant human N-terminal His-tagged Aurora A expressed in Sf21 cells using peptide substrate by TR-FRET assay
T1 sequence (whole entry): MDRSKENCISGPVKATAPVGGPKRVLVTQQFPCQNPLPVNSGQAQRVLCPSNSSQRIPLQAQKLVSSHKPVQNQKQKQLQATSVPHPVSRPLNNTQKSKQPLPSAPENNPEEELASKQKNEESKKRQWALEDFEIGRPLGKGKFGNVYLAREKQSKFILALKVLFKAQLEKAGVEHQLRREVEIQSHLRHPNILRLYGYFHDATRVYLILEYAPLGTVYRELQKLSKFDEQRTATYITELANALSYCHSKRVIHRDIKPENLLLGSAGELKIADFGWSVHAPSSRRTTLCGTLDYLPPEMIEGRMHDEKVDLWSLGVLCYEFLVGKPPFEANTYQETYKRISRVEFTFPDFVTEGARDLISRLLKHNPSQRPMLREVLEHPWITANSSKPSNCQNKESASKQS

C2C12 [12] = test: Induction of cell cycle arrest in mouse C2C12 cells assessed as G2/M phase at 1 uM incubated for 72 hrs by propidium iodide based flow cytometry (reference value: 19.3 %); format: functional
[13] = Induction of cellularization in human primary myotube assessed as alpha-tubulin level at 1 uM incubated for 72 hrs by Western blot analysis (reference value: 0.674); format: functional
[14] = Induction of cellularization in human primary myotube assessed as beta-actin level at 1 uM incubated for 72 hrs by Western blot analysis (reference value: 1.095); format: tissue-based
MDA-MB-231 [15] = test: Cytotoxicity against human MDA-MB-231 cells assessed as reduction in cell viability incubated for 72 hrs by MTT assay; format: functional, cell-based; conditions: MDA-MB-231, 72 h
C2C12 (Mus musculus) [16] = test: Induction of cellularization in mouse C2C12 myotube assessed as reduction in cell proliferation at 1 uM incubated for 72 hrs by EdU staining based inverted fluorescence microscopy
HCT-116 [17] = test: Induction of apoptosis in human HCT-116 cells assessed as cleaved PARP at 500 nM incubated for 72 hrs by Western blot assay (reference value: 1.127); format: functional
MDA-MB-231 [18] = test: Antimetastatic activity in human MDA-MB-231 cells xenografted in zebra fish at 10 uM incubated for 96 hrs by fluorescence microscopy; format: functional, cell-based
MDA-MB-231 [19] = test: Induction of apoptosis in human MDA-MB-231 cells assessed as cleaved PARP at 500 nM incubated for 72 hrs by Western blot assay (reference value: 0.519); format: functional
C2C12 [20] = test: Induction of cell cycle arrest in mouse C2C12 cells assessed as S phase at 1 uM incubated for 72 hrs by propidium iodide based flow cytometry (reference value: 10.5 %); format: functional
NIH3T3 [21] = test: Adipogenic activity in mouse NIH/3T3 cells assessed as increase in lipid accumulation at 1 uM preincubated for 72 hrs followed by incubation with adipogenic factors for 10 days by Oil red O staining based light microscopy; format: functional, cell-based; conditions: time 13.0 day
C2C12 (Mus musculus) [22] = test: Induction of cellularization in mouse C2C12 myotube at 1 uM incubated for 72 hrs by microscopic analysis
NIH3T3 [23] = test: Adipogenic activity in mouse NIH/3T3 cells assessed as […] in epinephrine-stimulated fatty acid release at 1 uM preincubated for 72 hrs followed by incubation with adipogenic factors for 10 days by colorimetric assay; format: functional, cell-based
C2C12 [24] = test: Osteogenic activity in mouse C2C12 cells assessed as increase in alkaline phosphatase at 1 uM preincubated for 72 hrs followed by incubation with osteogenic factor for 10 days by fluorescence based assay; format: functional, cell-based; conditions: time 13.0 day
HCT-116 [25] = test: Induction of apoptosis in human HCT-116 cells assessed as cleaved caspase-7 at 500 nM incubated for 72 hrs by Western blot assay (reference value: 0); format: functional
C2C12 [26] = test: Osteogenic activity in mouse C2C12 cells assessed as increase in plasticity at 1 uM preincubated for 72 hrs followed by incubation with osteogenic factor for 10 days by Alizarin red staining based light microscopy; format: functional, cell-based; conditions: time 13.0 day
[27] = Toxicity in zebra fish embryo assessed as reduction in cell viability at 40 uM; parameters: species or system Danio rerio; conditions: zebrafish
[28] = target: T1, Aurora kinase A (Homo sapiens); test: Inhibition of recombinant human N-terminal His-tagged Aurora A expressed in Sf21 cells using peptide substrate at 1 uM by TR-FRET assay relative to control
MDA-MB-231 [29] = test: Induction of apoptosis in human MDA-MB-231 cells assessed as cleaved caspase-7 at 500 nM incubated for 72 hrs by Western blot assay (reference value: 0.349); format: functional
[30] = Toxicity in zebra fish embryo assessed as reduction in swimming ability at 20 to 40 uM; parameters: species or system Danio rerio; conditions: zebrafish, dose 20-40 µM
[31] = target: Glycogen synthase kinase-3 beta (Homo sapiens) (UniProt P49841); test: Inhibition of GSK3beta (unknown origin) using PASVPPSPSLSRHSSPHQpSED as substrate preincubated for 10 mins followed by substrate addition and measured after 30 mins by TR-FRET assay; conditions: time 40.0 mins
NIH3T3 [32] = test: Downregulation of alpha-SMA in mouse NIH/3T3 cells at 1 uM incubated for 72 hrs by immunofluorescence microscopy; format: functional, cell-based
C2C12 [33] = test: Induction of cell cycle arrest in mouse C2C12 cells assessed as G1 phase at 1 uM incubated for 72 hrs by propidium iodide based flow cytometry (reference value: 61.2 %); format: functional
[34] = Toxicity in zebra fish embryo assessed as skeletal abnormalities at 20 to 40 uM; parameters: species or system Danio rerio; conditions: zebrafish, dose 20-40 µM
NIH3T3 [35] = test: Downregulation of alpha-SMA in mouse NIH-3T3 cells at 1 uM incubated for 72 hrs by Western blotting assay; format: functional, cell-based
[36] = Induction of cellularization in human primary myotube assessed as alpha-tubulin level at 20 uM incubated for 72 hrs by Western blot analysis (reference value: 0.674); format: functional
[37] = Induction of cellularization in human primary myotube assessed as beta-actin level at 20 uM incubated for 72 hrs by Western blot analysis (reference value: 1.095); format: tissue-based

SMILES: COC(=O)[C@H]1[C@H]2C[C@@H]3c4[nH]c5cc(OC)ccc5c4CCN3C[C@H]2C[C@@H](OC(=O)c2cc(OC)c(OC)c(OC)c2)[C@@H]1OC [RESERPINE]
- fold change (FC) [1]: 1.388
- fold change (FC) [2]: 0.758

SMILES: O=C1Nc2cc(Br)ccc2/C1=C1/Nc2ccccc2/C1=N\O [6BIO]
- fold change (FC) [3]: 0.758
- fold change (FC) [4]: 1.388

SMILES: Cl.NCCO/N=C1/C(=C2/C(=O)Nc3ccc([N+](=O)[O-])cc32)Nc2ccc(O)cc21
- Activity (NIH3T3 [5]): Active
- inhibition (MDA-MB-231 [6]): Active
- Activity (C2C12 [7]): Active
- Activity (C2C12 [8]): Active
- pIC50 (HCT-116 [9]): 6.52
- inhibition [10]: 99.8%
- inhibition [11]: Dose-dependent effect
- Activity (C2C12 [12]): 35%
- fold change (FC) [13]: 1.064
- fold change (FC) [14]: 1.451
- pIC50 (MDA-MB-231 [15]): 6.13
- Activity (C2C12 (Mus musculus) [16]): Active
- fold change (FC) (HCT-116 [17]): 1.129
- Activity (MDA-MB-231 [18]): Active
- fold change (FC) (MDA-MB-231 [19]): 1.962
- Activity (C2C12 [20]): 18%
- Activity (NIH3T3 [21]): Active
- Activity (C2C12 (Mus musculus) [22]): Active
- Activity (NIH3T3 [23]): Active
- Activity (C2C12 [24]): Active
- fold change (FC) (HCT-116 [25]): 1.115
- Activity (C2C12 [26]): Active
- Activity [27]: Toxic
- inhibition [28]: 47.7%
- fold change (FC) (MDA-MB-231 [29]): 0.674
- Activity [30]: Toxic
- inhibition [31]: Dose-dependent effect
- Activity (NIH3T3 [32]): Active
- Activity (C2C12 [33]): 33.6%
- Activity [34]: Toxic
- Activity (NIH3T3 [35]): Active

SMILES: COc1ccc(CNc2nc(NCc3ccc(OC)cc3)c3ncn(C(C)C)c3n2)cc1 [MYOSEVERIN]
- fold change (FC) [36]: 0
- fold change (FC) [37]: 1.139
